Data on one compound can be found in article PMC4010497, “Synthesis and Evaluation of Fluorine-Substituted Phenyl Acetate Derivatives as Ultra-Short Recovery Sedative/Hypnotic Agents” (PLoS ONE, 2014).

Series [1] deals with rabbits. Nature of the series: Hypnosis in response to IV infusion in rabbits. It is filed as in vivo, rabbit. On the procedure: Induction of hypnosis in rabbits was achieved using 2× HD50 dose of test compound, and immediately after induction, infusion via the tail vein was commenced at half the HD50 dosage per min. the infusion rate was maintained for 20 min or 1 h or 3 h later. The depth of hypnosis was monitored by the magnitude of a withdrawal reflex to intermittent paw pinch provided by a pair of forceps.

The target of series [2] is T1, human GABAA receptor α1, β2 and γ2 (CHO-K1 cells) (Homo sapiens, UniProt P14867+P18507+P47870).
T1 construct: expressed in transfected cells; host or cells: CHO-K1 cells, stably transfected
Briefly: cell-based. The protocol:
Chinese hamster ovary (CHO)-K1 cells transfected stably with human GABAA receptor α1, β2 and γ2 subunit cDNAs were used. The cells were plated onto collagen-coated 35-mm cell culture dishes at low density for 1–7 days before recording. Test solutions were prepared in the extracellular solution on the day the patch-clamp assay was performed. The intracellular solution consisted of 22 mM KCl, 110 mM K-aspartate, 8 mM NaCl, 1 mM MgCl2, 1 mM CaCl2, 10 mM ethylene glycol tetraacetic acid, 5 mM Na2ATP, 10 mM hydroxyethyl piperazineethanesulfonic acid (HEPES) (adjusted to pH 7.2 using KOH), while the extracellular solution contained 145 mM NaCl, 4 mM KCl, 2 mM CaCl2, 2 mM MgCl2, 10 mM HEPES (adjusted to pH 7.4 using NaOH). The assay was performed at room temperature. Cells were maintained at −70 mV and the potentiation effect was assessed by co-application of the test compound with EC20 of muscimol after the cell was pre-incubated with the test compound for 45 s. GABA EC20 measured individually in each cell. The amplitude of the Cl− current in response to muscimol and/or test compound was determined. The response to the co-application of the test compound and muscimol was normalized to the control muscimol response as a percentage of the control. A potentiation effect was indicated by a value >100% of the control response. EC50 values were calculated using the four parameter logistic equation, where E was the amplitude of the muscimol-induced current in the presence of the anesthetic at concentration [A], EMAX was the amplitude of the response in the presence of a maximally effective concentration of the anesthetic, EC50 was the concentration of anesthetic producing a half-maximal enhancement of the muscimol-induced response and nH was the Hill coefficient. [drawing 1]

For series [3], the system named is rat. It counts as in vivo. The protocol: (§1) All tests were performed during the light period. Groups of mice, rats and rabbits were injected intravenously (lateral tail vein) over 10 s with each dose of test compound, placed in separate boxes to reduce external stimuli and assessed for the loss of righting reflex. Dosing was performed using mg/kg scheme. A set of dose levels was chosen, and depending on whether the loss of righting reflex was observed, extra doses were introduced to provide data for the loss of righting reflex over a narrow dose range to allow potency calculations. From the percentage of mice, rats and rabbits in each group showing loss of righting reflex for ≥30 s, a probit analysis (SAS Institute) was performed to obtain an HD50 for each compound with 95% confidence limits.
(§2) Immediately following the injection, the mice, rats and rabbits were tested for loss of righting reflex. […] Once a loss was observed, the interval between the loss of righting reflex and the return to righting reflex was recorded. The anesthetized animals recovered righting reflexes spontaneously. To compare the duration of LORR of each compound at equipotent doses, groups of mice, rats and rabbits were injected with each compound at 2× HD50 over 10 s.
(§3) Time to walk was the time required after righting before mice and rabbits walked from the center to the periphery of a 30-cm diameter dise.
(§4) The rotarod test was conducted to evaluate the recovery to the motor coordination. Before the LORR test, mice were trained for 2 consecutive days. Trained mice could maintain their balance on rod for more than 2 mins. After the mice could walk from the center to the periphery of a 30-cm diameter dise, they were put on the rotarod. Mice were classified as behavioral recovery when, on being placed on the rod, they could maintain their balance for 20 s. The time to behavioral recovery was the time required after mice walked from the centre to the periphery of a 30-cm diameter disc before they could maintain their balance on rod for 20 s.

Series [4] deals with rat. Nature of the series: Therapeutic index (LD50/HD50) in rat. It counts as in vivo. The protocol:
(§5) The LD50 was determined in mice, rats, and rabbits and the TI was calculated as LD50/HD50.

Series [5] relates to rabbits. Briefly: Hypnotic potency and recovery after IV bolus in rabbits. It is filed as in vivo, rabbit. The protocol:
All tests were performed during the light period. Groups of mice, rats and rabbits were injected intravenously (lateral tail vein) over 10 s with each dose of test compound, placed in separate boxes to reduce external stimuli and assessed for the loss of righting reflex. Dosing was performed using mg/kg scheme. A set of dose levels was chosen, and depending on whether the loss of righting reflex was observed, extra doses were introduced to provide data for the loss of righting reflex over a narrow dose range to allow potency calculations.
Immediately following the injection, the mice, rats and rabbits were tested for loss of righting reflex. […] Once a loss was observed, the interval between the loss of righting reflex and the return to righting reflex was recorded. […] To compare the duration of LORR of each compound at equipotent doses, groups of mice, rats and rabbits were injected with each compound at 2× HD50 over 10 s.
as §3

In the next series the test system is mice. Nature of the series: animal or person. It is filed as in vivo. On the procedure: as §1, §2, §3, §4
The nature of the next series: in vivo. Conditions: mouse, in vivo; mice, 95% confidence limits. The protocol:
as §5

Structures are written as SMILES. pEC50: −log10 of the molar value.

T1 sequence (P14867 28-456): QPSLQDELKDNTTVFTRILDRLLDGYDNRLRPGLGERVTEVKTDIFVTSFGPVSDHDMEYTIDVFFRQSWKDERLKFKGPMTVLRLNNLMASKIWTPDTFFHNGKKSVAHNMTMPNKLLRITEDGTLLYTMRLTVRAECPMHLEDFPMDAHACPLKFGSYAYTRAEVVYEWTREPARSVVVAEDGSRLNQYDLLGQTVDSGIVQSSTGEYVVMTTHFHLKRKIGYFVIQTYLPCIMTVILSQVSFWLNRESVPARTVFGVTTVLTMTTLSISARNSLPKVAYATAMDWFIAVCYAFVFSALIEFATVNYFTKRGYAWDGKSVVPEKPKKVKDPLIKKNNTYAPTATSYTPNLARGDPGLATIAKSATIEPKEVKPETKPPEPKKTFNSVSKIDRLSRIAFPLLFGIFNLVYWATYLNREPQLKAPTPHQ
T1 sequence (P47870 25-512 limits assumed): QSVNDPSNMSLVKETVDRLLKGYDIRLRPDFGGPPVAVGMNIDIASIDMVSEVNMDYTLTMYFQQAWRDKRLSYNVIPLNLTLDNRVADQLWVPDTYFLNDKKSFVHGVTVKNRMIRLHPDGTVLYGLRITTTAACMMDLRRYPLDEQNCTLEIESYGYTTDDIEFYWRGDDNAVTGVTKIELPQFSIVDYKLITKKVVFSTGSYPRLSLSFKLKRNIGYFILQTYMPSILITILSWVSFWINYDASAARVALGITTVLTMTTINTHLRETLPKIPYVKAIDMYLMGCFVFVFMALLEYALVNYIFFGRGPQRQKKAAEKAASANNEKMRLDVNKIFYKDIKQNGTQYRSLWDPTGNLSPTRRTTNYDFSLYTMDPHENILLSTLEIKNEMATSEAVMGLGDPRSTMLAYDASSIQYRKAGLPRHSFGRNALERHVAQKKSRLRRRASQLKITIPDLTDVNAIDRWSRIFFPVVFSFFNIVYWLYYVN
T1 sequence (P18507 40-475): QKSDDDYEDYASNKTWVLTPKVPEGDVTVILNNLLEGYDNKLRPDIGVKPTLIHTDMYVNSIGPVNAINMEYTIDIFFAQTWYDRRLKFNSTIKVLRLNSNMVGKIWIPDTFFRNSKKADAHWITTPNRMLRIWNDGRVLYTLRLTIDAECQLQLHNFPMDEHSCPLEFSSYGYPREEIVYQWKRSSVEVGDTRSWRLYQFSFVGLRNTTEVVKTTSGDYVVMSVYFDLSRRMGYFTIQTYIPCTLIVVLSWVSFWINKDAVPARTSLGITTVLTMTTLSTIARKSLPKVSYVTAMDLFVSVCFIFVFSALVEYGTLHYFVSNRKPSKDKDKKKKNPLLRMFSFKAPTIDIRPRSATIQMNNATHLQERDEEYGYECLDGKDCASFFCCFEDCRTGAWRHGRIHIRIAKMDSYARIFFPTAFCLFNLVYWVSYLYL

The pEC50 is the EC50 on a negative log10 scale, so that one unit is a factor of ten. In general, LD50 refers to the dose at which mortality reaches 50%. For the compound `CC(C)c1cccc(C(C)C)c1O` [Propofol], in the series on rabbits [1] (20-min IV infusion), the “time to walk after infusion” value is 167.9 ± 60.8 s. Besides, the “duration of LORR after cessation of infusion” value in the series on rabbits [1] (20-min IV infusion at half the HD50 per min after 2× HD50 induction) was found to be 485.6 ± 164.1 s. The pEC50 in series [2] is 5.62. Further, the HD50 in the series on rat [3] (IV, 95% confidence limits) was 5.2 (4.5∼5.7) mg/kg; with rabbits [5] (IV, 95% confidence limits), 3.2 (2.3∼4.2) mg/kg. The “Duration of LORR” value was 349.3 ± 93.3 s in the series with rat [3] (in vivo); 326.6 ± 48.3 s in the series on rabbits [5] (2× HD50 dose, mean ± SD); 240.9 ± 93.7 s with mice (mouse, in vivo, iv). Further, the Time to walk was 286.5 ± 86.5 s in the series with rat [3] (in vivo); 425.3 ± 162.3 s in the series on rabbits [5] (2× HD50 dose, mean ± SD); 76.5 ± 42.5 s in the series on mice (mouse, in vivo). In addition, the “time to behavioral recovery” value in the series on rat [3] (in vivo) was found to be 335.8 ± 156.9 s; in the series with mice (mouse, in vivo) it was 242.7 ± 119.2 s. Further, the TI with rat [4] was found to be 5.9. Besides, in the series with mice (Mus musculus, iv, read-out: HD50), the ED50 was found to be 11.9 mg/kg. Besides, the Onset time in the series on mice (mouse, in vivo, iv) was 8.1 ± 1.6 s. The compound also gave an LD50 in “in vivo” of 64.4 mg/kg.
